# Data from patent US8828696B2, “Use of Penicillin G Procaine as a selective antimicrobial agent in the production of alcohol by fermentation” (Lallemand Specialites, Inc, priority 2008, dated 2014).
# Several values for one entry are separate records, joined by “and”; a condition that tells them apart may be missing. Identical values can stand only once.
# Tests used:
# Format in all cases: cell-based
# Lactobacillus fermentum = experiment: Comparative efficacy analysis Virginiamycin vs. Penicillin G Procaine, growth in MRS broth, 24 well plate; conditions: industry isolated Lactobacillus fermentum; ppm of the fermentation mixture
# Source text: The most commonly found microorganism in fuel ethanol producing plants is the Lactobacillus fermentum bacterium and is considered as an “industry normal” bacterium. This example compares the use of a Bactenix® line of products, Penicillin G Procaine-antibiotic versus Virginiamycin-antibiotic to control “industry normal” Lactobacillus fermentum bacterium. This trial uses an alcohol water mixture to assure total dissolving of antibiotics. This assures that the correct concentrations of antibiotics are going into the test wells and thereby preventing under dosing during the trial. All bacteria tested were industry specific isolates that were obtained from actual corn mash samples from fermentation alcohol production plants. The trial was set up as follows: • 1. Dissolve 0.1 g of each of the antibiotics in 1 ml water and then add 5 ml of ethanol, vortex and bring up to 10 ml with sterile water to from a suspension. • 2. Dilute the previous suspension 1:10 with sterile water. This gives a one mg/ml concentration. • 3. Filter the suspension by running through a 0.2 μm syringe filter. • 4. Add four μl broth in a centrifuge then add antibiotics to MRS (DeMan, Rogosa and Sharpe) broth at the concentrations required for the test. • 5. Take four μl of a fresh 24-hour culture of the target organisms and add to the corresponding empty wells in a pre-labeled 24 well tissue culture plate. • 6. Pipette one ml of the appropriate antibiotic media to each well of the plate. • 7. Incubate at 33° C. for 24 hours. • 8. Read plates for bacterial growth and re-incubate the plates at 33° C. • 9. After 48 hours read and report the final results.
# Lactobacillus brevis = experiment: Bacterial inhibition test; parameters: key to bacterial growth in inhibition test: successful test corresponding to no growth is represented as (=); barely discernable growth is represented as (±); easily noticeable bacterial growth is represented as (+)
# Source text: To directly measure the efficacy of Penicillin G Procaine and Penicillin G Potassium a bacterial inhibition test was designed using industrial isolates and chosen ATCC strains. The inhibition testing was spread over 0.1 ppm to 5.0 ppm for the Lactobacillus fermentum and 1.0 ppm to 5.0 ppm for Lactobacillus brevis species of bacteria due to the lack of response of Lactobacillus brevis at lower concentrations. […] The strains used were two isolates of Lactobacillus fermentum and 2 isolates of Lactobacillus brevis. The Lactobacillus fermentum series contained both an industry derived isolate Ind 1 and an ATCC strain while the Lactobacillus brevis series comprised of two isolates, Ind 1 and Ind 43 derived from the ethanol plants. The inhibition test plates were set in triplicate and read at 12 hour intervals up to 48 hours of test endpoint. The results below represent the mode average of the outcome from the triplicate inhibitory test sets for each trial. Table 11 lists the Lactobacillus fermentum and the Lactobacillus brevis results of the inhibition testing as follows: successful test corresponding to no growth is represented as (=), barely discernable growth is represented as (±) and easily noticeable bacterial growth is represented as (+). The set of control tests depict (=) control as just broth and (+) control as just broth with bacteria but without any antibiotic.
# The trial was set up as follows:
# • 1. Weigh out 0.1 g of each sample to be tested into a 15 ml centrifuge tube. • 2. Dissolve sample into 10 ml sterile water. […] Add antibiotic to clean tube, add 2 ml water. • b. Vortex, if antibiotic goes into solution add water for final volume of 10 ml. • c. […] Vortex until all material is in solution. • 3. Vortex the solutions to make sure that they are well mixed. • 4. Filter the solutions through a 0.2 μm syringe filter into a second labeled sterile centrifuge tube. • 5. Add antibiotic solution to MRS Broth for a final volume of 10 ml at the test concentration for each antibiotic. • 6. Mix organism solutions and add 2 μl to each of 3 wells of a 24 well plate. If tubes are used add the 2 μl to each of three tubes for each antibiotic. • 7. Transfer 1 ml of the antibiotic-broth solution to each well containing bacteria. • 8. Recap remaining antibiotic solution and return the tube to the tube rack. This tube will become the negative control for each dilution created. • 9. Add four μl of each bacterial culture to another set of wells and add […] of broth without antibiotics. These wells will be the positive controls. • 10. Incubate plates and tubes at 33 C for 48 hours, examining all samples at 24 hours for growth. Any turbidity detected should be a result of bacterial growth.
# contaminating bacteria = experiment: Alcohol production plant trial, fermentor drop data (50 m/g/y dry grind, corn)
# Procedure: This trial was conducted at a 50 million gallon per year (m/g/y) dry grind fuel alcohol production facility utilizing corn as a fermentation substrate. Batch yeast propagation and fermentation process were utilized. Antimicrobials were added to the fermentor during the fill cycle at approximately 30% fill.
# No other changes were made to the process or chemical additions that would influence the fermentation kinetics monitored during 3 sets of fermentor batches listed below. The fermentation data was accumulated at the end (drop) of the fermentation process for each of the fermentors. Fermentation kinetics was measured for three batch cycles including:
# Set 1—“Pre Penicillin G Procaine trial”-10 fermentor batches using a level of 0.5 ppm Virginiamycin. See results in Table 2.
# Set 2—“Penicillin G Procaine trial”-10 fermentor batches using a level of 0.5 ppm of Penicillin G Procaine. See results in Table 3.
# Set 3—“Post Penicillin G Procaine trial”-10 fermentor batches using a level of 0.5 ppm of Virginiamycin. See results in Table 4.
# [1] = Ind 1 L. brevis, 1 ppm, Inc Time 12
# [2] = Ind 1 L. brevis, 1 ppm, Inc Time 24
# [3] = Ind 1 L. brevis, 1 ppm, Inc Time 36
# [4] = Ind 1 L. brevis, 1 ppm, Inc Time 48
# [5] = Ind 1 L. brevis, 2 ppm, Inc Time 12
# [6] = Ind 1 L. brevis, 2 ppm, Inc Time 24
# [7] = Ind 1 L. brevis, 2 ppm, Inc Time 36
# [8] = Ind 1 L. brevis, 2 ppm, Inc Time 48
# [9] = Ind 1 L. brevis, 3 ppm, Inc Time 12
# [10] = Ind 1 L. brevis, 3 ppm, Inc Time 24
# [11] = Ind 1 L. brevis, 3 ppm, Inc Time 36
# [12] = Ind 1 L. brevis, 3 ppm, Inc Time 48
# [13] = Ind 1 L. brevis, 4 ppm, Inc Time 12
# [14] = Ind 1 L. brevis, 4 ppm, Inc Time 24
# [15] = Ind 1 L. brevis, 4 ppm, Inc Time 36
# [16] = Ind 1 L. brevis, 4 ppm, Inc Time 48
# [17] = Ind 1 L. brevis, 5 ppm, Inc Time 12
# [18] = Ind 1 L. brevis, 5 ppm, Inc Time 24
# [19] = Ind 1 L. brevis, 5 ppm, Inc Time 36
# [20] = Ind 1 L. brevis, 5 ppm, Inc Time 48
# [21] = Ind 43 L. brevis, 1 ppm, Inc Time 12
# [22] = Ind 43 L. brevis, 1 ppm, Inc Time 24
# [23] = Ind 43 L. brevis, 1 ppm, Inc Time 36
# [24] = Ind 43 L. brevis, 1 ppm, Inc Time 48
# [25] = Ind 43 L. brevis, 2 ppm, Inc Time 12
# [26] = Ind 43 L. brevis, 2 ppm, Inc Time 24
# [27] = Ind 43 L. brevis, 2 ppm, Inc Time 36
# [28] = Ind 43 L. brevis, 2 ppm, Inc Time 48
# [29] = Ind 43 L. brevis, 3 ppm, Inc Time 12
# [30] = Ind 43 L. brevis, 3 ppm, Inc Time 24
# [31] = Ind 43 L. brevis, 3 ppm, Inc Time 36
# [32] = Ind 43 L. brevis, 3 ppm, Inc Time 48
# [33] = Ind 43 L. brevis, 4 ppm, Inc Time 12
# [34] = Ind 43 L. brevis, 4 ppm, Inc Time 24
# [35] = Ind 43 L. brevis, 4 ppm, Inc Time 36
# [36] = Ind 43 L. brevis, 4 ppm, Inc Time 48
# [37] = Ind 43 L. brevis, 5 ppm, Inc Time 12
# [38] = Ind 43 L. brevis, 5 ppm, Inc Time 24
# [39] = Ind 43 L. brevis, 5 ppm, Inc Time 36
# [40] = Ind 43 L. brevis, 5 ppm, Inc Time 48
# [41] = Penicillin G Procaine trial 0.5 ppm compared with Virginiamycin sets
# [42] = Set 2 'Penicillin G Procaine trial', 0.5 ppm, 10 Batch average
# [43] = Set 2 'Penicillin G Procaine trial', 0.5 ppm, drop data, single fermentor batch
smiles,measurement,setting,value
CC1(C)S[C@@H]2[C@H](NC(=O)Cc3ccccc3)C(=O)N2[C@H]1C(=O)O.CCN(CC)CCOC(=O)c1ccc(N)cc1 [Penicillin G Procaine],minimum inhibitory concentration,Lactobacillus fermentum,0.1 ppm
same,bacterial growth in inhibition test,Lactobacillus brevis; [1],±
same,bacterial growth in inhibition test,Lactobacillus brevis; [2],+
same,bacterial growth in inhibition test,Lactobacillus brevis; [3],+
same,bacterial growth in inhibition test,Lactobacillus brevis; [4],+
same,bacterial growth in inhibition test,Lactobacillus brevis; [5],±
same,bacterial growth in inhibition test,Lactobacillus brevis; [6],+
same,bacterial growth in inhibition test,Lactobacillus brevis; [7],+
same,bacterial growth in inhibition test,Lactobacillus brevis; [8],+
same,bacterial growth in inhibition test,Lactobacillus brevis; [9],±
same,bacterial growth in inhibition test,Lactobacillus brevis; [10],+
same,bacterial growth in inhibition test,Lactobacillus brevis; [11],+
same,bacterial growth in inhibition test,Lactobacillus brevis; [12],+
same,bacterial growth in inhibition test,Lactobacillus brevis; [13],±
same,bacterial growth in inhibition test,Lactobacillus brevis; [14],±
same,bacterial growth in inhibition test,Lactobacillus brevis; [15],+
same,bacterial growth in inhibition test,Lactobacillus brevis; [16],+
same,bacterial growth in inhibition test,Lactobacillus brevis; [17],=
same,bacterial growth in inhibition test,Lactobacillus brevis; [18],=
same,bacterial growth in inhibition test,Lactobacillus brevis; [19],±
same,bacterial growth in inhibition test,Lactobacillus brevis; [20],+
same,bacterial growth in inhibition test,Lactobacillus brevis; [21],=
same,bacterial growth in inhibition test,Lactobacillus brevis; [22],+
same,bacterial growth in inhibition test,Lactobacillus brevis; [23],+
same,bacterial growth in inhibition test,Lactobacillus brevis; [24],+
same,bacterial growth in inhibition test,Lactobacillus brevis; [25],=
same,bacterial growth in inhibition test,Lactobacillus brevis; [26],+
same,bacterial growth in inhibition test,Lactobacillus brevis; [27],+
same,bacterial growth in inhibition test,Lactobacillus brevis; [28],+
same,bacterial growth in inhibition test,Lactobacillus brevis; [29],=
same,bacterial growth in inhibition test,Lactobacillus brevis; [30],+
same,bacterial growth in inhibition test,Lactobacillus brevis; [31],+
same,bacterial growth in inhibition test,Lactobacillus brevis; [32],+
same,bacterial growth in inhibition test,Lactobacillus brevis; [33],=
same,bacterial growth in inhibition test,Lactobacillus brevis; [34],±
same,bacterial growth in inhibition test,Lactobacillus brevis; [35],+
same,bacterial growth in inhibition test,Lactobacillus brevis; [36],+
same,bacterial growth in inhibition test,Lactobacillus brevis; [37],=
same,bacterial growth in inhibition test,Lactobacillus brevis; [38],±
same,bacterial growth in inhibition test,Lactobacillus brevis; [39],±
same,bacterial growth in inhibition test,Lactobacillus brevis; [40],+
same,minimum inhibitory concentration,"Lactobacillus brevis; industry isolated Lactobacillus brevis, ppm of the fermentation mixture",1.0 ppm
same,decrease of lactic acid production,contaminating bacteria; [41],about a quarter percent
same,increase of ethanol production,contaminating bacteria; [41],about half a percent
same,production increase of ethanol per fermentor,contaminating bacteria; [41],"about 2,500 gallons"
same,Acetic %,contaminating bacteria; [42],0.03%
same,EtOH v/v %,contaminating bacteria; [42],15.98 v/v %
same,Glucose %,contaminating bacteria; [42],0.28%
same,Lactic %,contaminating bacteria; [42],0.24%
same,Acetic %,contaminating bacteria; [43],0.03% and 0.02% and 0.05% and 0.04%
same,Glucose %,contaminating bacteria; [43],0.28% and 0.30% and 0.27% and 0.29%
same,Lactic %,contaminating bacteria; [43],0.28% and 0.19% and 0.21% and 0.26% and 0.25% and 0.23% and 0.24%
CC1(C)S[C@@H]2[C@H](NC(=O)Cc3ccccc3)C(=O)N2[C@H]1C(=O)[O-].[K+] [Penicillin G Potassium],bacterial growth in inhibition test,Lactobacillus brevis; [1],±
same,bacterial growth in inhibition test,Lactobacillus brevis; [2],+
same,bacterial growth in inhibition test,Lactobacillus brevis; [3],+
same,bacterial growth in inhibition test,Lactobacillus brevis; [4],+
same,bacterial growth in inhibition test,Lactobacillus brevis; [5],±
same,bacterial growth in inhibition test,Lactobacillus brevis; [6],+
same,bacterial growth in inhibition test,Lactobacillus brevis; [7],+
same,bacterial growth in inhibition test,Lactobacillus brevis; [8],+
same,bacterial growth in inhibition test,Lactobacillus brevis; [9],±
same,bacterial growth in inhibition test,Lactobacillus brevis; [10],+
same,bacterial growth in inhibition test,Lactobacillus brevis; [11],+
same,bacterial growth in inhibition test,Lactobacillus brevis; [12],+
same,bacterial growth in inhibition test,Lactobacillus brevis; [13],±
same,bacterial growth in inhibition test,Lactobacillus brevis; [14],+
same,bacterial growth in inhibition test,Lactobacillus brevis; [15],+
same,bacterial growth in inhibition test,Lactobacillus brevis; [16],+
same,bacterial growth in inhibition test,Lactobacillus brevis; [17],=
same,bacterial growth in inhibition test,Lactobacillus brevis; [18],=
same,bacterial growth in inhibition test,Lactobacillus brevis; [19],±
same,bacterial growth in inhibition test,Lactobacillus brevis; [20],+
same,bacterial growth in inhibition test,Lactobacillus brevis; [21],=
same,bacterial growth in inhibition test,Lactobacillus brevis; [22],+
same,bacterial growth in inhibition test,Lactobacillus brevis; [23],+
same,bacterial growth in inhibition test,Lactobacillus brevis; [24],+
same,bacterial growth in inhibition test,Lactobacillus brevis; [25],=
same,bacterial growth in inhibition test,Lactobacillus brevis; [26],+
same,bacterial growth in inhibition test,Lactobacillus brevis; [27],+
same,bacterial growth in inhibition test,Lactobacillus brevis; [28],+
same,bacterial growth in inhibition test,Lactobacillus brevis; [29],=
same,bacterial growth in inhibition test,Lactobacillus brevis; [30],+
same,bacterial growth in inhibition test,Lactobacillus brevis; [31],+
same,bacterial growth in inhibition test,Lactobacillus brevis; [32],+
same,bacterial growth in inhibition test,Lactobacillus brevis; [33],=
same,bacterial growth in inhibition test,Lactobacillus brevis; [34],±
same,bacterial growth in inhibition test,Lactobacillus brevis; [35],±
same,bacterial growth in inhibition test,Lactobacillus brevis; [36],+
same,bacterial growth in inhibition test,Lactobacillus brevis; [37],=
same,bacterial growth in inhibition test,Lactobacillus brevis; [38],±
same,bacterial growth in inhibition test,Lactobacillus brevis; [39],±
same,bacterial growth in inhibition test,Lactobacillus brevis; [40],+
